For nine compounds, activity coefficient results are on record in the NIST ThermoML archive (doi:10.1021/je700139p).

Molecules are shown by their SMILES. Numbers after ± are expanded uncertainties.

A short description of this data set: activity coefficient (dimensionless); of the first substance listed, at infinite dilution; xn = mol fraction of the nth substance listed. As to conditions: 101 kPa, Liquid, Chromatography, x1 = 0.

For the compound `Cc1ccccc1C` [1,2-dimethylbenzene] + O=S1(=O)CCCC1, the activity coefficient worked out at 4.57 ± 0.31 (333.15 K); 4.39 ± 0.3 (343.15 K); 4.28 ± 0.29 (353.15 K); 4.17 ± 0.28 (363.15 K); 4.04 ± 0.28 (373.15 K).

As for `CCCCCCCCCC` [decane] + O=S1(=O)CCCC1, the activity coefficient (333.15 K) stood at 147 ± 10; the activity coefficient (343.15 K) was 126 ± 8.6; the activity coefficient (353.15 K) came out at 107 ± 7.3; the activity coefficient (363.15 K) was 92.2 ± 6.3; the activity coefficient (373.15 K) worked out at 79.8 ± 5.5.

In the case of `CCc1ccccc1` [ethylbenzene] + O=S1(=O)CCCC1, the activity coefficient is, setting by setting: (333.15 K) 4.82 ± 0.33; (343.15 K) 4.65 ± 0.32; (353.15 K) 4.48 ± 0.3; (363.15 K) 4.35 ± 0.3; (373.15 K) 4.26 ± 0.29.

Turning to `Cc1cccc(C)c1` [1,3-dimethylbenzene] + O=S1(=O)CCCC1, the activity coefficient worked out at 5.35 ± 0.36 (333.15 K); 5.13 ± 0.35 (343.15 K); 4.98 ± 0.34 (353.15 K); 4.77 ± 0.33 (363.15 K); 4.65 ± 0.32 (373.15 K).

Consider `c1ccccc1` [benzene] + O=S1(=O)CCCC1, for which the activity coefficient reads like this: (333.15 K) 2.32 ± 0.16; (343.15 K) 2.3 ± 0.16; (353.15 K) 2.28 ± 0.15; (363.15 K) 2.26 ± 0.15; (373.15 K) 2.25 ± 0.15.

Turning to `CCCCCCC` [heptane] + O=S1(=O)CCCC1, the activity coefficient is 60.3 ± 4.1 (333.15 K); 53.1 ± 3.6 (343.15 K); 47.6 ± 3.3 (353.15 K); 41.2 ± 2.8 (363.15 K); 38.5 ± 2.6 (373.15 K).

For the compound `CCCCCCCC` [octane] + O=S1(=O)CCCC1, the activity coefficient reads like this: (333.15 K) 80.7 ± 5.5; (343.15 K) 70.5 ± 4.8; (353.15 K) 61.7 ± 4.2; (363.15 K) 54.3 ± 3.7; (373.15 K) 48.6 ± 3.3.

`Cc1ccccc1` [toluene] + O=S1(=O)CCCC1: the activity coefficient was 3.46 ± 0.23 (333.15 K); 3.38 ± 0.23 (343.15 K); 3.29 ± 0.22 (353.15 K); 3.23 ± 0.22 (363.15 K); 3.2 ± 0.22 (373.15 K).

As to `Cc1ccc(C)cc1` [1,4-dimethylbenzene] + O=S1(=O)CCCC1, the activity coefficient is 5.51 ± 0.38 (333.15 K); 5.25 ± 0.36 (343.15 K); 5.11 ± 0.35 (353.15 K); 4.88 ± 0.33 (363.15 K); 4.76 ± 0.32 (373.15 K).
